{
  "source": "patent US9796671B2",
  "about": "“Aurora kinase inhibitors” (REGENTS OF THE UNIVERSITY OF MINNESOTA, priority 2012, dated 2017)",
  "key": {"HCT116 cells": {"test_system": "HCT116 cells", "assay": "Anchorage-independent growth (soft agar colony formation)", "assay_type": "cell-based", "settings": "0.5 μM", "protocol": "FIGS. 3A and 3B. Compounds 1-8 suppress the anchorage-independent growth of HCT116 cells. The asterisk indicates a significant (* p<0.05, ** p<0.01) decrease in colony formation in cells treated with each compound compared with the DMSO treated control group. Two concentrations of each compound, 0.5 μM and 5 μM were tested. […] Compounds 2 and 4 had no effect.\n(§1) Tumor cells are suspended in basal medium Eagle (BME) medium and added to 0.6% agar, with different concentrations of Compound 1 in a base layer and a top layer of 0.3% agar. The cultures are maintained at 37° C. in a 5% CO2 incubator for 1 to 2 weeks and then colonies are counted under a microscope using the Image-Pro Plus software (v.4) program (Media Cybernetics, Silver Spring, Md.)."}, "Aurora A [1]": {"target": "T1, Aurora A (Homo sapiens, UniProt O14965)", "T1 construct": "purchased Millipore", "T1 sequence (O14965 1-403)": "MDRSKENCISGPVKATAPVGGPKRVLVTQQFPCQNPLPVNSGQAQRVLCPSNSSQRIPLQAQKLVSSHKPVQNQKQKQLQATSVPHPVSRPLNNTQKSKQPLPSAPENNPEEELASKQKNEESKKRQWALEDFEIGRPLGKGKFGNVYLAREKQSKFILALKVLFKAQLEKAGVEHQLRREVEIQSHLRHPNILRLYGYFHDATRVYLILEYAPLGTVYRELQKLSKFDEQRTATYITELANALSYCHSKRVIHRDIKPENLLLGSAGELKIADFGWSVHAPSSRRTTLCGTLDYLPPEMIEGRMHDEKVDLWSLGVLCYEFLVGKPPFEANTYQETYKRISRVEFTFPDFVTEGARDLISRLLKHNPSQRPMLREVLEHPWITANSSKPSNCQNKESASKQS", "assay": "Aurora A in vitro kinase assay", "assay_type": "biochemical", "settings": "1 μM, compared with control", "protocol": "Proteins are resolved by SDS-PAGE and transferred onto polyvinylidene difluoride membranes (Millipore, Mass.), which are blocked with nonfat milk and hybridized with specific primary antibodies. The protein bands are visualized using an enhanced chemiluminescence reagent (GE Healthcare, Pittsburgh, Pa.) after hybridization with a horseradish peroxidase-conjugated secondary antibody. […] Reactions are carried out in 1× kinase buffer (25 mM Tris-HCl pH 7.5, 5 mM beta-glycerophosphate, 2 mM dithiothreitol (DTT), 0.1 mM Na3VO4, 10 mM MgCl2 and 5 mM MnCl2) containing 100 μM ATP at 30° C. for 30 minutes. Reactions are stopped and proteins detected by Western blotting. An in vitro kinase assay was used to determine whether Compound 1 could inhibit Aurora B kinase activity using recombinant Aurora B protein and various concentrations of Compound 1. […] The effect of Compound 1 on Aurora A kinase activity using an in vitro kinase assay was also examined."}, "H520 cells": {"test_system": "H520 cells", "assay": "Anchorage-independent growth of human lung cancer cells", "assay_type": "cell-based", "protocol": "as §1\n(§2) The effect of Compound 1 treatment on anchorage-independent growth of human lung cancer cells, including A549, H1650, and H520 cells was then examined. […] Compound 1 at 0.5 or 1 μM caused a decrease of more than 80% or 90% compared to control in all cell lines detected."}, "A549 cells": {"test_system": "A549 cells", "assay": "Anchorage-independent growth of human lung cancer cells", "assay_type": "cell-based", "protocol": "as §1, §2"}, "H1650 cells": {"test_system": "H1650 cells", "assay": "Anchorage-independent growth of human lung cancer cells", "assay_type": "cell-based", "protocol": "as §1, §2"}, "PI3-K gamma": {"target": "PI3-K gamma (Homo sapiens, UniProt P48736)", "sequence (P48736 whole entry, species assumed)": "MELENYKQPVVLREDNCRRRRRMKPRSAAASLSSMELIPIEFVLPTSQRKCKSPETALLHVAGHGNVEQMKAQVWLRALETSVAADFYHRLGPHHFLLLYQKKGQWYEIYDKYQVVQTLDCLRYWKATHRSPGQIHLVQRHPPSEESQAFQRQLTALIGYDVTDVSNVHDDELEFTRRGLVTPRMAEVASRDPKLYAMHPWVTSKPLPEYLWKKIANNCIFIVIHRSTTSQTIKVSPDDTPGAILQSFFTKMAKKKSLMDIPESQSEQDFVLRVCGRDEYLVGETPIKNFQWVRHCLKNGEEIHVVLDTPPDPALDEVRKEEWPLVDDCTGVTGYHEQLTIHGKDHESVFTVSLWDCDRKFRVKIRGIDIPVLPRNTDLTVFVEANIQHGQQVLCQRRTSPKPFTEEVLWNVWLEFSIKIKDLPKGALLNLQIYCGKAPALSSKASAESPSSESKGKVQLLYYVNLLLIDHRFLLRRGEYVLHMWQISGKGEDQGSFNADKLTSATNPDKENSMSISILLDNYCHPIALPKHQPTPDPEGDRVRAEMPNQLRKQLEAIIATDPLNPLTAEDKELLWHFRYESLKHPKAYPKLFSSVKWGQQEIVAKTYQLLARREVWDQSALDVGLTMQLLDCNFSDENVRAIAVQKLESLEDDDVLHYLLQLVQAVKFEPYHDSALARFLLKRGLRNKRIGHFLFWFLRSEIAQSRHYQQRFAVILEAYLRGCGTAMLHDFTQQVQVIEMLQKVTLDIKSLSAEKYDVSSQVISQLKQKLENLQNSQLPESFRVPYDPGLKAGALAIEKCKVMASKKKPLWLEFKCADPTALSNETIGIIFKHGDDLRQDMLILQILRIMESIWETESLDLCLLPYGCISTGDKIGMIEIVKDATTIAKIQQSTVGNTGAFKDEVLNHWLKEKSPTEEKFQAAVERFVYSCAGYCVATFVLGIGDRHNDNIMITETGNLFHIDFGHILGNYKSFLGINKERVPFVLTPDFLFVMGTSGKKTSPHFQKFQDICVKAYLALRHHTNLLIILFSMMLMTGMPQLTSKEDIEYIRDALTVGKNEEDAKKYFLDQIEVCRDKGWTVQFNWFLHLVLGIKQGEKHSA", "assay": "Kinase profile assay (Millipore)", "assay_type": "biochemical", "settings": "read-out: kinase activity compared with the control", "protocol": "(§3) A kinase profile assay was performed by Millipore, to examine other potential targets of Compound 1. Only Akt2 activity was suppressed more than 50% after 5 μM compound 1 treatment, compared with the control (Table 2). In addition, the kinase activity of Aurora A was decreased less than 25% at 5 μM Compound 1."}, "Abl": {"target": "T2, Abl (Homo sapiens, UniProt P00519)", "T2 construct": "purchased Millipore", "assay": "Kinase profile assay (Millipore)", "assay_type": "biochemical", "settings": "read-out: kinase activity compared with the control", "protocol": "as §3"}, "CSK": {"target": "T3, CSK (Homo sapiens, UniProt P41240)", "T3 construct": "purchased Millipore", "assay": "Kinase profile assay (Millipore)", "assay_type": "biochemical", "settings": "5 μM", "protocol": "as §3"}, "JNK1 alpha1": {"target": "T4, JNK1 alpha1 (Homo sapiens, UniProt P45983)", "T4 construct": "purchased Millipore", "T4 sequence (P45983 1-384 isoform P45983-2, species assumed)": "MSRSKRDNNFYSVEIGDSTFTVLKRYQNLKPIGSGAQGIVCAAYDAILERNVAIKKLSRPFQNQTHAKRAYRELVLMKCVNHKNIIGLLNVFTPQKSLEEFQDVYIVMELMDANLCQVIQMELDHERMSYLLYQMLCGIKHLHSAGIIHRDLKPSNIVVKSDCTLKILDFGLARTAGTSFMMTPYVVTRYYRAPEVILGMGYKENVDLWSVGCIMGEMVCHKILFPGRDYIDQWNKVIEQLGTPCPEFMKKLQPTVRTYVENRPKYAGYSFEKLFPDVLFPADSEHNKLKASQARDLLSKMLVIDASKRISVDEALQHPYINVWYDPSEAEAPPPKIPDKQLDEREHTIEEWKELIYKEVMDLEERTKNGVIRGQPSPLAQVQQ", "assay": "Kinase profile assay (Millipore)", "assay_type": "biochemical", "settings": "5 μM", "protocol": "as §3"}, "DYRK2": {"target": "T5, DYRK2 (Homo sapiens, UniProt Q92630)", "T5 construct": "purchased Millipore", "assay": "Kinase profile assay (Millipore)", "assay_type": "biochemical", "settings": "read-out: kinase activity compared with the control", "protocol": "as §3"}, "JNK2 alpha2": {"target": "T6, JNK2 alpha2 (Homo sapiens, UniProt P45984)", "T6 construct": "purchased Millipore", "assay": "Kinase profile assay (Millipore)", "assay_type": "biochemical", "settings": "5 μM", "protocol": "as §3"}, "CHK2": {"target": "T7, CHK2 (Homo sapiens, UniProt O96017)", "T7 construct": "purchased Millipore", "assay": "Kinase profile assay (Millipore)", "assay_type": "biochemical", "settings": "read-out: kinase activity compared with the control", "protocol": "as §3"}, "Pim-1": {"target": "T8, Pim-1 (Homo sapiens, UniProt P11309)", "T8 construct": "purchased Millipore", "assay": "Kinase profile assay (Millipore)", "assay_type": "biochemical", "settings": "read-out: kinase activity compared with the control", "protocol": "as §3"}, "FAK": {"target": "T9, FAK (Homo sapiens, UniProt Q05397)", "T9 construct": "purchased Millipore", "assay": "Kinase profile assay (Millipore)", "assay_type": "biochemical", "settings": "read-out: kinase activity compared with the control", "protocol": "as §3"}, "LKB1": {"target": "T10, LKB1 (Homo sapiens, UniProt Q15831)", "T10 construct": "purchased Millipore", "assay": "Kinase profile assay (Millipore)", "assay_type": "biochemical", "settings": "read-out: kinase activity compared with the control", "protocol": "as §3"}, "MAPK2": {"target": "T11, MAPK2 (Homo sapiens, UniProt P28482)", "T11 construct": "purchased Millipore", "assay": "Kinase profile assay (Millipore)", "assay_type": "biochemical", "settings": "read-out: kinase activity compared with the control", "protocol": "as §3"}, "c-Src": {"target": "T12, c-Src (Homo sapiens, UniProt P12931)", "T12 construct": "purchased Millipore", "assay": "Kinase profile assay (Millipore)", "assay_type": "biochemical", "settings": "read-out: kinase activity compared with the control", "protocol": "as §3"}, "FGFR1": {"target": "T13, FGFR1 (Homo sapiens, UniProt P11362)", "T13 construct": "purchased Millipore", "T13 sequence (P11362 22-822, species assumed)": "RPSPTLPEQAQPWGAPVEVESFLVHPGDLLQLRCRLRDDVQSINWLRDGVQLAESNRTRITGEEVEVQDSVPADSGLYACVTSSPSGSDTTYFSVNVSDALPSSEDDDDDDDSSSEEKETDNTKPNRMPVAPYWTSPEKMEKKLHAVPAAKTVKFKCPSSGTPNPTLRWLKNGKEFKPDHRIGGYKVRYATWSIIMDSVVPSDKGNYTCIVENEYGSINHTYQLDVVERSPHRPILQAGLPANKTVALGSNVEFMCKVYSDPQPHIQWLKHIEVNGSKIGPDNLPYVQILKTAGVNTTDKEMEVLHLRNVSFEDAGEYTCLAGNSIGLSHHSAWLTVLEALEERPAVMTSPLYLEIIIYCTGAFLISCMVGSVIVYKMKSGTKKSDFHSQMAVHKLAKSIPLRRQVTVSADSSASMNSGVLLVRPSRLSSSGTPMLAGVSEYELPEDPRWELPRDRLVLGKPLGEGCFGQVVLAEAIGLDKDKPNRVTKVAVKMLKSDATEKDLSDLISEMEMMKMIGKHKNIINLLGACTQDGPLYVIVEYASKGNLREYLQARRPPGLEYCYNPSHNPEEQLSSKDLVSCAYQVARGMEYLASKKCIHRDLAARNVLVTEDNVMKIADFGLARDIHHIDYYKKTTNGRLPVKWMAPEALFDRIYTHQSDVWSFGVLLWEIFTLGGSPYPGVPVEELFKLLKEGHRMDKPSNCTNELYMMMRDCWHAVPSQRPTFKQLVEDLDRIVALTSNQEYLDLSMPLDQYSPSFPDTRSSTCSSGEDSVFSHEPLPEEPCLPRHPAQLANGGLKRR", "assay": "Kinase profile assay (Millipore)", "assay_type": "biochemical", "settings": "read-out: kinase activity compared with the control", "protocol": "as §3"}, "Aurora A [2]": {"target": "T1, Aurora A", "assay": "Kinase profile assay (Millipore)", "assay_type": "biochemical", "protocol": "as §3"}, "PDK1": {"target": "T14, PDK1 (Homo sapiens, UniProt O15530)", "T14 construct": "purchased Millipore", "assay": "Kinase profile assay (Millipore)", "assay_type": "biochemical", "settings": "read-out: kinase activity compared with the control", "protocol": "as §3"}, "Fyn": {"target": "T15, Fyn (Homo sapiens, UniProt P06241)", "T15 construct": "purchased Millipore", "assay": "Kinase profile assay (Millipore)", "assay_type": "biochemical", "settings": "read-out: kinase activity compared with the control", "protocol": "as §3"}, "CDK3/cyclinE": {"target": "T16, CDK3/cyclinE (Homo sapiens, UniProt Q00526)", "T16 construct": "purchased Millipore", "assay": "Kinase profile assay (Millipore)", "assay_type": "biochemical", "settings": "5 μM", "protocol": "as §3"}, "EGFR (T790M, L858R)": {"target": "T17, EGFR (T790M, L858R) (Homo sapiens, UniProt P00533, L858R/T790M)", "T17 construct": "purchased Millipore", "T17 sequence (P00533 25-1210 T790M/L858R, species assumed)": "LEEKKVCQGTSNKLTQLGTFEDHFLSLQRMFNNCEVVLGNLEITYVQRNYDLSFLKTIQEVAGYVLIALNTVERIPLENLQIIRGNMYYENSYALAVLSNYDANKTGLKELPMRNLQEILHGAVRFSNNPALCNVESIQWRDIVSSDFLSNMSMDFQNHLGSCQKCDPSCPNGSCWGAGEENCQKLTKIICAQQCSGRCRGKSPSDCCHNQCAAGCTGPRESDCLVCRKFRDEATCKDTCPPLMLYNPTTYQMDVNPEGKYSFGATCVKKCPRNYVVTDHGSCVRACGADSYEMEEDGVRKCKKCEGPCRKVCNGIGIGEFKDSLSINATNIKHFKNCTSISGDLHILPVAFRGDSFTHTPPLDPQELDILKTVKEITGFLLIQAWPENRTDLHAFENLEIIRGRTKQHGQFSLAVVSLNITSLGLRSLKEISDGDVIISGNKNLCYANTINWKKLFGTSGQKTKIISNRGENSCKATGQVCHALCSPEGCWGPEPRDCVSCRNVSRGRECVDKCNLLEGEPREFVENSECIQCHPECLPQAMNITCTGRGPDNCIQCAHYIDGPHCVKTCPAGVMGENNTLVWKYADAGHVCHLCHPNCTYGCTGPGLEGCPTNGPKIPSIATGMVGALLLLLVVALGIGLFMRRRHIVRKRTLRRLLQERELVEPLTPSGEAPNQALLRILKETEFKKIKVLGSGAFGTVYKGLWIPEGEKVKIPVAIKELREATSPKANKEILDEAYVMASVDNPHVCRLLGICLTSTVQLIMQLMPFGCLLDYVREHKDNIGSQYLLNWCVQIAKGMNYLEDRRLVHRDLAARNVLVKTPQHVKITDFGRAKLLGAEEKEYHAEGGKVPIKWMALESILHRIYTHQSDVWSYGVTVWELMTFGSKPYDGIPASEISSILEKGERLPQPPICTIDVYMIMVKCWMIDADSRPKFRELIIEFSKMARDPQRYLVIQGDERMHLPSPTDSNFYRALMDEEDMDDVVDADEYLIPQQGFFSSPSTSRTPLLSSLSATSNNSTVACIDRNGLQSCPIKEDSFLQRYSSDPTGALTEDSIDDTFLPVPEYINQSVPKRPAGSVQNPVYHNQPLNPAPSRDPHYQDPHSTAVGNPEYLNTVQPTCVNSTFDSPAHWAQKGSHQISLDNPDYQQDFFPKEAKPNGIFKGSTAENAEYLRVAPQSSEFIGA", "assay": "Kinase profile assay (Millipore)", "assay_type": "biochemical", "settings": "5 μM", "protocol": "as §3"}, "KDR": {"target": "T18, KDR (Homo sapiens, UniProt P35968)", "T18 construct": "purchased Millipore", "T18 sequence (P35968 20-1356, species assumed)": "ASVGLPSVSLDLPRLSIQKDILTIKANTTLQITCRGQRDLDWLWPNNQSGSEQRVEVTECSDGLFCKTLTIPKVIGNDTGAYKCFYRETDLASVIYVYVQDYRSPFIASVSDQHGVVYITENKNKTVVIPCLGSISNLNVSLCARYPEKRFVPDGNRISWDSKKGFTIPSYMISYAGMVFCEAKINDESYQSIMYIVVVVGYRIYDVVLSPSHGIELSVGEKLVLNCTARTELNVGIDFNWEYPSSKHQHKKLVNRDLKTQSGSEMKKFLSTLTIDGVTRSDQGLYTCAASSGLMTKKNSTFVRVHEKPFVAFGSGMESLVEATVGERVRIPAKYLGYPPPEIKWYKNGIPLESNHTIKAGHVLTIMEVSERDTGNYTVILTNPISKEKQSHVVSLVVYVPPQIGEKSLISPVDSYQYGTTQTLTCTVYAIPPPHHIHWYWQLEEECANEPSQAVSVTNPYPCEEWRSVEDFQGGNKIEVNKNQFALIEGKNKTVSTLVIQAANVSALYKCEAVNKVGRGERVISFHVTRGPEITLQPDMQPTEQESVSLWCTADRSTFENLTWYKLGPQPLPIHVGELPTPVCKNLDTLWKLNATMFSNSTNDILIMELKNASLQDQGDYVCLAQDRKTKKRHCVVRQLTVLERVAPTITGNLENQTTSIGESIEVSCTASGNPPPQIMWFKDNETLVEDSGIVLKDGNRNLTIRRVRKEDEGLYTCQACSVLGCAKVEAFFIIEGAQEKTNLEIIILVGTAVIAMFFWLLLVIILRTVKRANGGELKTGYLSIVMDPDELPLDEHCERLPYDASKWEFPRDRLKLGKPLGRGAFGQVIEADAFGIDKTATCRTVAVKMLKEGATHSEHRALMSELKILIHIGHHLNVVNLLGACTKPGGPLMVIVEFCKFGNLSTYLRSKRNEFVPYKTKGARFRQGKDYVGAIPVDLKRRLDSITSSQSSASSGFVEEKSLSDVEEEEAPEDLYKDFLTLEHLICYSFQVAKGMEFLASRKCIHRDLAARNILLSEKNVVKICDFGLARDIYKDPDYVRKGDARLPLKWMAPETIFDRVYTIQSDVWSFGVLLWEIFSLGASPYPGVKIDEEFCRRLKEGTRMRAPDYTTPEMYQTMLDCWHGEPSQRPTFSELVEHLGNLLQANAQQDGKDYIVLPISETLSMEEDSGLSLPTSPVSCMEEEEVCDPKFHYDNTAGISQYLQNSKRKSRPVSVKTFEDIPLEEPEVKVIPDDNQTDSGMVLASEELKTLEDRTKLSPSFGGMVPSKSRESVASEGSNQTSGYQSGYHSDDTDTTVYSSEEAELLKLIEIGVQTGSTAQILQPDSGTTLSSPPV", "assay": "Kinase profile assay (Millipore)", "assay_type": "biochemical", "settings": "read-out: kinase activity compared with the control", "protocol": "as §3"}},
  "data": [
    {"smiles": "O=C(/C=C/c1ccc2c(c1)OCO2)/C=C1/C(=O)Nc2ccccc21", "note": "[Compound 1]", "values": [
      {"measurement": "anchorage-independent growth of HCT116 cells (colony formation)", "setting": "HCT116 cells", "result": "best efficiency"},
      {"measurement": "effect on histone H3 (Ser10) phosphorylation by Aurora A", "setting": "Aurora A [1]", "result": "No effect"},
      {"measurement": "decrease of anchorage-independent growth compared to control", "setting": "H520 cells; H520, 0.5 μM", "result": "more than 80%"},
      {"measurement": "decrease of anchorage-independent growth compared to control", "setting": "H520 cells; H520, 1 μM", "result": "> 90", "unit": "%"},
      {"measurement": "decrease of anchorage-independent growth compared to control", "setting": "A549 cells; A549, 0.5 μM", "result": "more than 80%"},
      {"measurement": "decrease of anchorage-independent growth compared to control", "setting": "A549 cells; A549, 1 μM", "result": "> 90", "unit": "%"},
      {"measurement": "decrease of anchorage-independent growth compared to control", "setting": "H1650 cells; H1650, 0.5 μM", "result": "more than 80%"},
      {"measurement": "decrease of anchorage-independent growth compared to control", "setting": "H1650 cells; H1650, 1 μM", "result": "> 90", "unit": "%"},
      {"measurement": "remaining activity at 5 µM", "setting": "PI3-K gamma", "result": 100, "unit": "%"},
      {"measurement": "remaining activity at 5 µM", "setting": "Abl", "result": 109, "unit": "%"},
      {"measurement": "kinase activity compared with the control", "setting": "CSK", "result": 110},
      {"measurement": "kinase activity compared with the control", "setting": "JNK1 alpha1", "result": 104},
      {"measurement": "remaining activity at 5 µM", "setting": "DYRK2", "result": 97, "unit": "%"},
      {"measurement": "kinase activity compared with the control", "setting": "JNK2 alpha2", "result": 89},
      {"measurement": "remaining activity at 5 µM", "setting": "CHK2", "result": 75, "unit": "%"},
      {"measurement": "remaining activity at 5 µM", "setting": "Pim-1", "result": 96, "unit": "%"},
      {"measurement": "remaining activity at 5 µM", "setting": "FAK", "result": 104, "unit": "%"},
      {"measurement": "remaining activity at 5 µM", "setting": "LKB1", "result": 87, "unit": "%"},
      {"measurement": "remaining activity at 5 µM", "setting": "MAPK2", "result": 102, "unit": "%"},
      {"measurement": "remaining activity at 5 µM", "setting": "c-Src", "result": 99, "unit": "%"},
      {"measurement": "remaining activity at 5 µM", "setting": "FGFR1", "result": 86, "unit": "%"},
      {"measurement": "kinase activity of Aurora A decreased (kinase profile)", "setting": "Aurora A [2]; 5 μM", "result": "less than 25%"},
      {"measurement": "remaining activity at 5 µM", "setting": "Aurora A [2]; Aurora A, read-out: kinase activity compared with the control", "result": 76, "unit": "%"},
      {"measurement": "remaining activity at 5 µM", "setting": "PDK1", "result": 96, "unit": "%"},
      {"measurement": "remaining activity at 5 µM", "setting": "Fyn", "result": 99, "unit": "%"},
      {"measurement": "kinase activity compared with the control", "setting": "CDK3/cyclinE", "result": 99},
      {"measurement": "kinase activity compared with the control", "setting": "EGFR (T790M, L858R)", "result": 101},
      {"measurement": "remaining activity at 5 µM", "setting": "KDR", "result": 93, "unit": "%"}
    ]}
  ]
}
